# Several values for one entry are separate records, joined by “and”; a condition that tells them apart may be missing. Identical values can stand only once.
# Molecular target: Replicase polyprotein 1ab (Severe acute respiratory syndrome coronavirus 2, UniProt P0DTD1)
# Test: Functional biochemical assay to identify treatments for viral infectious disease that targets SARS-COV-2 nsp3 macrodomain, whereby the mechanism of action displaces an ADP-Ribose modified peptide from the binding site. Utilizing a time-resolved fluorescence method to measure binding by reading the emitted fluorescence intensity in two wavelengths.
row,Compound,IC50
1,CCn1ncc(-c2cc3c(N[C@@H](c4ccc5c(c4)OCCO5)C(C)C)ncnc3[nH]2)c1C,0.905 µM and 1.06 µM
2,CC(C)[C@@H](Nc1ncnc2[nH]c(-c3ccoc3C#N)cc12)c1ccc2c(c1)OCCO2,2.71 µM and 2.67 µM
3,CC(C)[C@@H](Nc1ncnc2[nH]c(-c3cc(-c4ccccc4)n[nH]3)cc12)c1ccc2c(c1)OCCO2,> 99.5 µM
4,CC(C)[C@@H](Nc1ncnc2[nH]c(-c3cccc(NC(N)=O)c3)cc12)c1ccc2c(c1)OCCO2,5.14 µM and 5.85 µM
5,CCn1ncc(-c2cc3c(N[C@@H](c4ccc5c(c4)OCCO5)C(C)C)ncnc3[nH]2)n1,1.07 µM and 1.24 µM
6,CC(C)[C@@H](Nc1ncnc2[nH]c(-c3ccc(-n4cccn4)cc3)cc12)c1ccc2c(c1)OCCO2,> 99.5 µM
7,CC(C)[C@@H](Nc1ncnc2[nH]c(-c3ccnn3C3CCC3)cc12)c1ccc2c(c1)OCCO2,5.59 µM and 8.76 µM
8,CC(C)[C@@H](Nc1ncnc2[nH]c([C@@H]3CCOC3)cc12)c1ccc2c(c1)OCCO2,1.86 µM and 1.95 µM
9,Cc1c(C#N)cncc1-c1cc2c(N[C@@H](c3ccc4c(c3)OCCO4)C(C)C)ncnc2[nH]1,19.2 µM and 16.3 µM
10,CC(C)[C@@H](Nc1ncnc2[nH]ccc12)c1ccc2c(c1)N(C)C(=O)CO2,67.7 µM and 67.4 µM
11,CC(C)[C@@H](Nc1ncnc2[nH]ccc12)c1ccc2cn[nH]c2c1,> 99.5 µM
12,CNCc1cc(-c2cc3c(N[C@@H](c4ccc5c(c4)OCCO5)C(C)C)ncnc3[nH]2)co1,0.281 µM and 0.383 µM
13,CC(C)[C@@H](Nc1ncnc2[nH]c(-c3cccc4c3CN(C)C4=O)cc12)c1ccc2c(c1)OCCO2,2.15 µM and 2.54 µM
14,CC(C)[C@@H](Nc1ncnc2[nH]c(-c3ccnn3C)cc12)c1ccc2c(c1)OCCO2,0.699 µM and 0.883 µM and 0.832 µM
15,CCc1n[nH]cc1-c1cc2c(N[C@@H](c3ccc4c(c3)OCCO4)C(C)C)ncnc2[nH]1,1.19 µM and 0.961 µM
16,CC(C)[C@@H](Nc1ncnc2[nH]c(-c3cc[nH]c3)cc12)c1ccc2c(c1)OCCO2,5.34 µM and 4.55 µM
17,CC(C)[C@@H](Nc1ncnc2[nH]c(-c3cnn(-c4ccc(F)cc4)c3)cc12)c1ccc2c(c1)OCCO2,27.4 µM and 26 µM
18,CC(C)[C@@H](Nc1ncnc2[nH]c(-c3cncn3C)cc12)c1ccc2c(c1)OCCO2,5.77 µM and 7.42 µM
19,CC(C)[C@@H](Nc1ncnc2[nH]c(-c3cnn(C)c3)cc12)c1ccc2c(c1)OCCO2,0.538 µM and 0.616 µM and 0.618 µM
20,Cc1noc2ncc(-c3cc4c(N[C@@H](c5ccc6c(c5)OCCO6)C(C)C)ncnc4[nH]3)cc12,3.73 µM and 3 µM
21,CCn1ccc(-c2cc3c(N[C@@H](c4ccc5c(c4)OCCO5)C(C)C)ncnc3[nH]2)n1,1.32 µM and 1.53 µM
22,CC(C)[C@@H](Nc1ncnc2[nH]c(-c3ccnn3CC3CC3)cc12)c1ccc2c(c1)OCCO2,4.22 µM and 3.91 µM

row,Compound,IC50
1,CC(C)[C@@H](Nc1ncnc2[nH]c(-c3cnn(C4CC4)c3)cc12)c1ccc2c(c1)OCCO2,0.998 µM and 1.23 µM and 1.12 µM
2,Cc1n[nH]c(-c2cc3c(N[C@@H](c4ccc5c(c4)OCCO5)C(C)C)ncnc3[nH]2)c1C,5.16 µM and 4.51 µM
3,CC(C)[C@@H](Nc1ncnc2[nH]c(-c3[nH]ncc3C3CC3)cc12)c1ccc2c(c1)OCCO2,16.1 µM and 14.3 µM
4,Cc1nnn(C)c1-c1cc2c(N[C@@H](c3ccc4c(c3)OCCO4)C(C)C)ncnc2[nH]1,10.1 µM and 8.67 µM
5,CC(C)[C@@H](Nc1ncnc2[nH]c(-c3cccc(CN4CCCS4(=O)=O)c3)cc12)c1ccc2c(c1)OCCO2,> 99.5 µM
6,Cc1cc(-c2cc3c(N[C@@H](c4ccc5c(c4)OCCO5)C(C)C)ncnc3[nH]2)nn1C,2.79 µM and 1.62 µM
7,CC(C)[C@@H](Nc1ncnc2[nH]c(-c3ccn(C)n3)cc12)c1ccc2c(c1)OCCO2,0.972 µM and 1.02 µM
8,CC(C)[C@@H](Nc1ncnc2[nH]c(-c3cnc(C4CC4)o3)cc12)c1ccc2c(c1)OCCO2,3.28 µM and 3.76 µM
9,Cc1cc(-c2cc3c(N[C@@H](c4ccc5c(c4)OCCO5)C(C)C)ncnc3[nH]2)[nH]n1,2.56 µM and 3.09 µM
10,CC(C)[C@@H](Nc1ncnc2[nH]c(-c3ccco3)cc12)c1ccc2c(c1)OCCO2,6.2 µM and 6.1 µM
11,CCCn1nccc1-c1cc2c(N[C@@H](c3ccc4c(c3)OCCO4)C(C)C)ncnc2[nH]1,2.19 µM and 2.45 µM and 2.62 µM
12,Cc1ccoc1-c1cc2c(N[C@@H](c3ccc4c(c3)OCCO4)C(C)C)ncnc2[nH]1,43.9 µM and 39.7 µM
13,CC(C)[C@@H](Nc1ncnc2[nH]c(-c3cncc(C(=O)N(C)C)c3)cc12)c1ccc2c(c1)OCCO2,0.746 µM and 0.819 µM
14,CC(=O)c1ccc(-c2cc3c(N[C@@H](c4ccc5c(c4)OCCO5)C(C)C)ncnc3[nH]2)[nH]1,2.97 µM and 3.24 µM
15,CC(C)[C@@H](Nc1ncnc2[nH]ccc12)c1ccc2c(c1)NC(=O)[C@@H](C)O2,2.69 µM and 2.9 µM
16,CCn1nccc1-c1cc2c(N[C@@H](c3ccc4c(c3)OCCO4)C(C)C)ncnc2[nH]1,0.892 µM and 1.42 µM and 1.29 µM
17,CC(C)[C@@H](Nc1ncnc2[nH]c(-c3cccc(Cn4ccnc4)c3)cc12)c1ccc2c(c1)OCCO2,> 99.5 µM
18,CC(C)[C@@H](Nc1ncnc2[nH]c(-c3ccn(C(C)C)n3)cc12)c1ccc2c(c1)OCCO2,2.27 µM and 2.62 µM
19,Cc1c(-c2cc3c(N[C@@H](c4ccc5c(c4)OCCO5)C(C)C)ncnc3[nH]2)cnn1C,0.639 µM and 0.701 µM
20,CC(C)[C@@H](Nc1ncnc2[nH]c(-c3cncc(OCCN(C)C)c3)cc12)c1ccc2c(c1)OCCO2,0.903 µM and 0.891 µM
21,CC(C)[C@@H](Nc1ncnc2[nH]c(-c3ccnn3C3CC3)cc12)c1ccc2c(c1)OCCO2,1.08 µM and 1.23 µM
22,Cc1cnn(-c2ccc(-c3cc4c(N[C@@H](c5ccc6c(c5)OCCO6)C(C)C)ncnc4[nH]3)cc2)c1,> 99.5 µM

row,Compound,IC50
1,CC(C)[C@@H](Nc1ncnc2[nH]c(-c3ccc(C#N)nc3)cc12)c1ccc2c(c1)OCCO2,1.85 µM and 2.13 µM
2,CC(C)[C@@H](Nc1ncnc2[nH]c(-c3cn(C)nc3C3CC3)cc12)c1ccc2c(c1)OCCO2,1.19 µM
3,CC(C)[C@@H](Nc1ncnc2[nH]c(-c3cncc(C#N)c3)cc12)c1ccc2c(c1)OCCO2,5.81 µM and 7.13 µM
4,CC(C)[C@@H](Nc1ncnc2[nH]c(-c3ccnc(N4CCCC4)c3)cc12)c1ccc2c(c1)OCCO2,16.6 µM and 17.2 µM
5,CC(C)[C@@H](Nc1ncnc2[nH]c(-c3cnc4c(c3)CC(=O)N4)cc12)c1ccc2c(c1)OCCO2,1.3 µM and 1.51 µM
6,CC(=O)c1ccc(-c2cc3c(N[C@@H](c4ccc5c(c4)OCCO5)C(C)C)ncnc3[nH]2)o1,1.51 µM and 1.45 µM
7,CC(C)c1n[nH]cc1-c1cc2c(N[C@@H](c3ccc4c(c3)OCCO4)C(C)C)ncnc2[nH]1,2.01 µM and 2.07 µM
8,CC(C)[C@@H](Nc1ncnc2[nH]c(-c3cn[nH]c3)cc12)c1ccc2c(c1)OCCO2,0.713 µM and 0.737 µM
9,COC(=O)c1cc(-c2cc3c(N[C@@H](c4ccc5c(c4)OCCO5)C(C)C)ncnc3[nH]2)c[nH]1,4.97 µM and 5 µM
10,CC(C)[C@@H](Nc1ncnc2[nH]c(-c3cc4c(C#N)cccc4[nH]3)cc12)c1ccc2c(c1)OCCO2,> 99.5 µM
11,CNC(=O)c1cc2c(N[C@@H](c3ccc4c(c3)NC(=O)CO4)C(C)C)ncnc2[nH]1,0.164 µM and 0.143 µM and 0.163 µM and 0.154 µM
12,Cc1ncc(-c2cc3c(N[C@@H](c4ccc5c(c4)OCCO5)C(C)C)ncnc3[nH]2)n1C,0.674 µM and 0.711 µM
13,CC(C)[C@@H](Nc1ncnc2[nH]ccc12)c1ccc2c(n1)NC(=O)CO2,2.61 µM and 2.71 µM
14,CC(C)[C@@H](Nc1ncnc2[nH]c(-c3cn(C)nc3C#N)cc12)c1ccc2c(c1)OCCO2,0.871 µM and 0.843 µM
15,Cc1cocc1-c1cc2c(N[C@@H](c3ccc4c(c3)OCCO4)C(C)C)ncnc2[nH]1,2.51 µM and 2.58 µM
16,Cc1noc(C)c1-c1cc2c(N[C@@H](c3ccc4c(c3)OCCO4)C(C)C)ncnc2[nH]1,16.7 µM and 18.5 µM
17,CC(C)[C@@H](Nc1ncnc2[nH]c(-c3cnn(C4CCC4)c3)cc12)c1ccc2c(c1)OCCO2,1.17 µM and 1.52 µM and 1.4 µM
18,CC(C)[C@@H](Nc1ncnc2[nH]c(-c3cnn(C4CCC4)n3)cc12)c1ccc2c(c1)OCCO2,3.84 µM and 3.92 µM
19,CC(C)[C@@H](Nc1ncnc2[nH]c(-c3ccnc(C#N)c3)cc12)c1ccc2c(c1)OCCO2,2.09 µM and 2.22 µM
20,Cc1cn[nH]c1-c1cc2c(N[C@@H](c3ccc4c(c3)OCCO4)C(C)C)ncnc2[nH]1,6.78 µM and 8.84 µM and 8.77 µM
21,CC(C)[C@@H](Nc1ncnc2[nH]c(-c3ccc(S(N)(=O)=O)cc3)cc12)c1ccc2c(c1)OCCO2,1.63 µM and 1.81 µM
22,COCCn1cc(-c2cc3c(N[C@@H](c4ccc5c(c4)OCCO5)C(C)C)ncnc3[nH]2)c(C#N)n1,0.676 µM and 0.868 µM

row,Compound,IC50
1,CNC(=O)c1cccc(-c2cc3c(N[C@@H](c4ccc5c(c4)OCCO5)C(C)C)ncnc3[nH]2)c1,0.416 µM and 0.475 µM and 0.383 µM
2,Cc1coc(-c2cc3c(N[C@@H](c4ccc5c(c4)OCCO5)C(C)C)ncnc3[nH]2)c1,> 99.5 µM
3,Cc1nn(C)nc1-c1cc2c(N[C@@H](c3ccc4c(c3)OCCO4)C(C)C)ncnc2[nH]1,27.6 µM and 34.2 µM
4,CC(C)[C@@H](Nc1ncnc2[nH]c(-c3cnn(C(C)C)c3)cc12)c1ccc2c(c1)OCCO2,0.757 µM and 0.962 µM and 0.864 µM
5,Cc1cn(C)nc1-c1cc2c(N[C@@H](c3ccc4c(c3)OCCO4)C(C)C)ncnc2[nH]1,> 99.5 µM
6,CC(C)[C@@H](Nc1ncnc2[nH]c(-c3ccc4nccn4c3)cc12)c1ccc2c(c1)OCCO2,1.14 µM and 1.38 µM
7,CCn1cc(-c2cc3c(N[C@@H](c4ccc5c(c4)OCCO5)C(C)C)ncnc3[nH]2)c(C)n1,0.423 µM and 0.473 µM
8,CC(C)[C@@H](Nc1ncnc2[nH]c(-c3ccc4[nH]ncc4c3)cc12)c1ccc2c(c1)OCCO2,20.5 µM and 19.7 µM
9,COc1nn(C)cc1-c1cc2c(N[C@@H](c3ccc4c(c3)OCCO4)C(C)C)ncnc2[nH]1,1.79 µM and 1.91 µM
10,Cc1nn(C)cc1-c1cc2c(N[C@@H](c3ccc4c(c3)OCCO4)C(C)C)ncnc2[nH]1,0.411 µM and 0.493 µM and 0.469 µM
11,Cc1cc(-c2cc3c(N[C@@H](c4ccc5c(c4)OCCO5)C(C)C)ncnc3[nH]2)c[nH]1,9.53 µM and 10.2 µM
12,Cc1cc(-c2cc3c(N[C@@H](c4ccc5c(c4)OCCO5)C(C)C)ncnc3[nH]2)n(C)n1,1.07 µM and 1.02 µM
13,CCn1cc(-c2cc3c(N[C@@H](c4ccc5c(c4)OCCO5)C(C)C)ncnc3[nH]2)cn1,0.626 µM and 0.652 µM
14,COC(=O)c1c[nH]c(-c2cc3c(N[C@@H](c4ccc5c(c4)OCCO5)C(C)C)ncnc3[nH]2)c1,2.98 µM and 3.58 µM
15,CC(C)[C@@H](Nc1ncnc2[nH]c(-c3cnn(CC4CC4)c3)cc12)c1ccc2c(c1)OCCO2,0.804 µM and 0.853 µM
16,CC(C)[C@@H](Nc1ncnc2[nH]c(C3=CCOC3)cc12)c1ccc2c(c1)OCCO2,0.421 µM and 0.563 µM
17,CC(C)[C@@H](Nc1ncnc2[nH]c(-c3cnn(CC4(C#N)CC4)c3)cc12)c1ccc2c(c1)OCCO2,0.421 µM and 0.446 µM
18,CC(C)[C@@H](Nc1ncnc2[nH]c(-c3ccnn3C(C)C)cc12)c1ccc2c(c1)OCCO2,3.02 µM and 2.94 µM
19,Cc1nn(CC(N)=O)cc1-c1cc2c(N[C@@H](c3ccc4c(c3)OCCO4)C(C)C)ncnc2[nH]1,0.33 µM and 0.341 µM
20,CC(C)[C@@H](Nc1ncnc2[nH]c(-c3cnn(C(C)C)n3)cc12)c1ccc2c(c1)OCCO2,1.7 µM and 2.13 µM

# — ChEMBL document CHEMBL5441456, “ASAP - SARS-CoV-2 nsp3 macrodomain dose response” (2024)
